Laboratory results as given in patent US11542261B2, “Substituted Imidazo[1,2-a]-pyridines as IRAK 1/4 and FLT3 inhibitors” (CHILDREN'S HOSPITAL MEDICAL CENTER, priority 2016, dated 2023).
pIC50: −log10 of the molar value.

Experiments:
THP-1 cells [1] = experiment: Inhibitory activity against THP-1 cells; type: cell-based; conditions: THP-1 cells (FLT3 wild type AML); data not shown
[2] = Rat microsomal stability (RLM); type: in vitro ADME; conditions: Table 10
IRAK4 phosphorylation [3] = experiment: Immunoblot of phosphorylated IRAK4 in MDSL cells; type: cell-based, human; conditions: 24 hours
FLT3 phosphorylation = experiment: Immunoblot of phosphorylated FLT3 in MV4;11 cells; type: cell-based, human; conditions: 50 nM, 24 hours
MDSL cells = experiment: MDSL cell growth, Cell-titer glow, 72 hours; type: cell-based, human
Method: In a 96-well culture plate (Corning Inc. Costar), 25000 cells were plated in 200 μL media per well. In triplicate, 2 μL of the indicated inhibitor (100× in DMSO) was added to each well and cells treated with 2 μL DMSO alone was used as the control. Treated cells were incubated at 37° C. for 72 hours. In a white 96-well assay plate (Corning Inc. Costar), 100 μL of the treated cells were transferred and brought to room temperature. An equal volume of CellTiter-Glo Reagent at room temperature was added to the cells and the plate was rocked for 2 minutes, followed by 10 minutes of rest. Analysis was performed using GloMax 96 microplate Luminometer (Promega) with GloMax Software.
FIG. 10—Methods: (FIG. 10A) Colony formation of MDSL cells was determined in methylcellulose supplemented with 1 μM or 10 μM of the indicated compounds. Colony formation was determined after 10 days.

PCTAIRE3 = PCTAIRE3 (Homo sapiens (Human), UniProt Q07002); experiment: KiNativ in situ kinase profiling in MV4:11 cell lysates; type: biochemical
Method: (§1) FIG. 18A depicts the labeling site key. FIG. 18B depicts estimated IC50 values. FIG. 18C depicts the full IC50 list for the various kinases. This is an in situ kinase profiling assay; details and methodology are available at www kinativ com. The assay was performed in lysates of MV-4-11 cells which were pretreated for 15 minutes with the inhibitor before the ATP probe was added.
(§2) The KiNativ® assay is an in situ kinase profiling assay; details and methodology are available at www kinativ com. This assay uses the form of the enzyme that is found in actual cells. The assay is run either in cell lysates or in whole cells, with the drug of interest added either to the cell lysates (i.e. cells that have been popped open) or to the outside of the cell in a whole cell assay prior to making the cell lysates. The whole cell assay is optimal because the drug must pass through the cell membrane to get to the cytoplasm where the kinase resides if the kinase is a cytosolic kinase, as is the case for IRAK, or the location of the kinase domain for the FLT3 receptor kinase domain. In the case of FIG. 18, the KiNativ assay was run on cell lysates from the MV4:11 cells. The MV4:11 cells are a FLT3-ITD positive cell line.
(§3) FLT3 is not captured by the KiNativ technology. The KiNativ assay is done in the actual cellular milieu, where the kinase domains are in their more natural states and subject to more native regulatory elements (e.g. other protein domains within the kinase itself that might not be present in the Reaction Biology assay, and which might otherwise obscure access to the active site by our ligand).

GAK = GAK (Homo sapiens (Human), UniProt O14976); experiment: as above; type: biochemical
Method: as §1, §2, §3

TNIK = TNIK (Homo sapiens (Human), UniProt Q9UKE5); experiment: as above; type: biochemical
Method: as §1, §2, §3

PCTAIRE2 = PCTAIRE2 (Homo sapiens (Human), UniProt Q00537); experiment: as above; type: biochemical
Method: as §1, §2, §3

IRAK1 [4] = target: T1, IRAK1 (Homo sapiens (Human), UniProt P51617); experiment: as above; type: biochemical
Method: as §1, §2, §3

LYN = LYN (Homo sapiens (Human), UniProt P07948); experiment: as above; type: biochemical
Method: as §1, §2, §3

MINK = MINK (Homo sapiens (Human), UniProt Q8N4C8); experiment: as above; type: biochemical
Method: as §1, §2, §3

PCTAIRE1 = PCTAIRE1 (Homo sapiens (Human), UniProt Q00536); experiment: as above; type: biochemical
Method: as §1, §2, §3

CDK7 = CDK7 (Homo sapiens (Human), UniProt P50613); experiment: as above; type: biochemical
Method: as §1, §2, §3

ABL = ABL (Homo sapiens (Human), UniProt P00519); experiment: as above; type: biochemical
Method: as §1, §2, §3

HGK = HGK (Homo sapiens (Human), UniProt O95819); experiment: as above; type: biochemical
Method: as §1, §2, §3

Kasumi-1 cells = experiment: Synergy of I-24/1481 with venetoclax in Kasumi-1 cells (MTS); type: cell-based
THP-1 cells [5] = experiment: Synergy of I-24/1481 with venetoclax in THP-1 cells (MTS); type: cell-based; conditions: combined with an IC50 concentration of I-24/1481
Method: Data were analyzed by Prism v 8. […] FIG. 14C depicts the relevant heat maps; data in the upper heat map indicates the Bliss Scores, and the lower heat map indicates the individual data points for the various dose response curves. Methods: Day 0: Cell Line Plating in growth media recommended by ATCC using Tecan Fluent in 96 well plate (Eppendorf 0030730011); Day 1: Drug Addition. Venetoclax obtained from Selleckchem (S8048); Day 1→4: Incubate with Drug for 72 Hrs at 37 C, 5% CO2; Day 5: Add 20% original volume MTS (Promega G5440) and incubate for 4 Hrs; Add 25% original volume 10% SDS (Invitrogen 24730-020) to lyse cells and stop conversion of MTS to formazan. Read out is colorimetric at 490 nm using a BioTek Synergy Neo Plate Reader.

IRAK4 phosphorylation [6] = experiment: Immunoblot of P-IRAK4 in FLT3-ITD AML cells; type: cell-based, human; conditions: 50 nM
MLL-AF9 NRas cells = experiment: NRAS IC50 (MLL-AF9 NRas cells); type: cell-based; conditions: Table 10
MLL-AF9/FLT3-ITD cells = type: cell-based; conditions: Homo sapiens, MLL-AF9, Table 10
IRAK1 [7] = target: T1, IRAK1; experiment: HotSpot kinase IC50 assay; type: biochemical; conditions: 10 μM ATP
IRAK4 = IRAK4 (Homo sapiens (Human), UniProt Q9NWZ3); experiment: HotSpot kinase IC50 assay; type: biochemical; conditions: 10 μM ATP

## Clc1ccc2ncc(-c3cccc(NC4CCNCC4)n3)n2c1 [Compound I-2, 6-(6-chloroimidazo[1,2-a]pyridin-3-yl)-N-(piperidin-4-yl)pyridin-2-amine]
THP-1 cells [1]
  concentration without any inhibitory activity: > 10 µM
[2]
  Stability: >30.0 min

## COc1cc2ncc(-c3cccc(NC4CCNC4)n3)n2cc1-c1cnn(C)c1 (stereo not shown) [Compound I-24, 6-(7-methoxy-6-(1-methyl-1H-pyrazol-4-yl)imidazo[1,2-a]pyridin-3-yl)-N-(pyrrolidin-3-yl)pyridin-2-amine]
THP-1 cells [1]
  concentration without any inhibitory activity: > 10 µM
IRAK4 phosphorylation [3]
  IRAK4 phosphorylation: effectively inhibited pIRAK4
FLT3 phosphorylation
  FLT3 phosphorylation: inhibited FLT3 phosphorylation comparably to AC220
MDSL cells
  MDSL growth: increased ability to inhibit MDSL growth compared to IRAK-Inh
PCTAIRE3
  pIC50: > 6.60
GAK
  pIC50: > 6.60
TNIK
  pIC50: > 6.60
PCTAIRE2
  pIC50: > 6.60
IRAK1 [4]
  pIC50: > 6.60
LYN
  pIC50: > 6.60
MINK
  pIC50: > 6.60
PCTAIRE1
  pIC50: > 6.60
CDK7
  pIC50: > 6.60
ABL
  pIC50: > 6.60
HGK
  pIC50: > 6.60

## CC1(C)CCC(CN2CCN(c3ccc(C(=O)NS(=O)(=O)c4ccc(NCC5CCOCC5)c([N+](=O)[O-])c4)c(Oc4cnc5[nH]ccc5c4)c3)CC2)=C(c2ccc(Cl)cc2)C1 [Venetoclax, venetoclax]
MLL-AF9 FLT3-ITD cells; combined with 0.2 nM 1481
  fold shift of Venetoclax IC50: 50 fold
MLL-AF9 FLT3-ITD cells; read-out: IC50 alone, single agent
  pIC50: 5.50
Kasumi-1 cells; Homo sapiens, denominator of the dose ratio, read-out: concentration giving the IC50 response when administered alone
  pIC50: 5.44
Kasumi-1 cells; combined with a minimally active concentration of I-24/1481
  fold shift of Venetoclax IC50: ~15 fold
THP-1 cells [5]
  shift of venetoclax IC50: 15,000 times

## COc1cc2ncc(-c3cccc(NC4CCNC4)n3)n2cc1-c1cn[nH]c1 (stereo not shown) [Compound I-20, 6-(7-methoxy-6-(1H-pyrazol-4-yl)imidazo[1,2-a]pyridin-3-yl)-N-(pyrrolidin-3-yl)pyridin-2-amine]
IRAK4 phosphorylation [6]
  compensatory phosphorylation of IRAK4: did not result in compensatory phosphorylation of IRAK4
MLL-AF9 NRas cells
  pIC50: 4.48
FLT3 phosphorylation
  FLT3 phosphorylation: inhibited FLT3 phosphorylation comparably to AC220
MLL-AF9/FLT3-ITD cells
  pIC50: 7.40

## CC(C)(C)c1cc(NC(=O)Nc2ccc(-c3cn4c(n3)sc3cc(OCCN5CCOCC5)ccc34)cc2)no1 [quizartinib]
IRAK1 [7]
  IC50: inactive
IRAK4
  IC50: inactive

## COc1cc(-c2cn[nH]c2)cn2c(-c3cccc(NC4CCNC4)n3)cnc12 (stereo not shown) [Compound I-37]
MLL-AF9 NRas cells
  pIC50: 4.78
[2]
  Stability: 2.3 min
MLL-AF9/FLT3-ITD cells
  pIC50: 5.65

## COc1cc2ncc(-c3cccc(NC4CCNC4)n3)n2cc1-c1cnn(CCN2CCOCC2)c1 (stereo not shown) [Compound I-26]
MLL-AF9 NRas cells
  pIC50: 4.80
[2]
  Stability: >30.0 min
MLL-AF9/FLT3-ITD cells
  pIC50: 7.70

## COc1cc2ncc(-c3cccc(NC4CCNC4)n3)n2cc1C#N (stereo not shown) [Compound I-39]
MLL-AF9 NRas cells
  pIC50: 5.25
[2]
  Stability: 8.8 min
MLL-AF9/FLT3-ITD cells
  pIC50: 7.48

## Cn1cc(-c2ccc3ncc(-c4cccc(NC5CNC5)n4)n3c2)cn1 [Compound I-46]
MLL-AF9 NRas cells
  pIC50: 4.78
[2]
  Stability: >30.0 min
MLL-AF9/FLT3-ITD cells
  pIC50: 6.67
